In patent US20110052570A1, “METHOD TO PROGNOSE RESPONSE TO ANTI-EGFR THERAPEUTICS” (CHILDREN'S MEDICAL CENTER CORPORATION, priority 2005, published 2011):
“Also recorded” adds a separate entry of the source.

Key:
EGFR = target: T1, EGFR (Mus musculus, UniProt Q01279); assay: EGFR phosphorylation by immunoprecipitation / western blotting in endothelial cells; type: cell-based; details: for ligand-induced EGFR phosphorylation / activation: serum starved A375SM tumor EC, ligand 100 ng/ml
T1 construct: endogenous in cells; host or cells: mouse tumour EC isolated from A375SM melanoma, MDA-MB-231 breast carcinoma and liposarcoma xenografts; mouse skin EC as control
Method: Immunoprecipitation (IP) and western blotting (WB). […] Cells were also treated with the EGFR kinase inhibitor, AG1478 (Calbiochem, San Diego, Calif.), prepared in DMSO, fifteen minutes prior to growth factor stimulation. Immunoprecipitation (IP) and western blotting (WB) were performed as previously described (16). […] Receptor phosphorylation was detected using anti-phosphotyrosine antibody (mAb 4G10; Upstate, Lake Placid, N.Y.). […] In addition antibodies to GAPDH (Chemicon, Temecula, Calif.), (β-Actin (Sigma-Aldrich, St Louis, Mo.), phospho-Erk1-2 (New England Biolab, Beverly Mass.), and Erk1 (Santa Cruz Biotechnology) were purchased.

ErbB2 = ErbB2 phosphorylation by immunoprecipitation / western blotting in endothelial cells; type: cell-based, mouse
Method: (§1) Immunoprecipitation (IP) and western blotting (WB). […] Cells were also treated with the EGFR kinase inhibitor, AG1478 (Calbiochem, San Diego, Calif.), prepared in DMSO, fifteen minutes prior to growth factor stimulation. Immunoprecipitation (IP) and western blotting (WB) were performed as previously described (16). The antibodies used for IP and WB of ErbB1-4 were: SC-03, SC-284, SC-285, and SC-283 respectively (Santa Cruz Biotechnology, Santa Cruz, Calif.). Receptor phosphorylation was detected using anti-phosphotyrosine antibody (mAb 4G10; Upstate, Lake Placid, N.Y.). Analysis of phosphorylated—EGFR on lysates was performed using phospho-1068 EGFR (Cell Signaling Technologies, Beverly Mass.). In addition antibodies to GAPDH (Chemicon, Temecula, Calif.), (β-Actin (Sigma-Aldrich, St Louis, Mo.), phospho-Erk1-2 (New England Biolab, Beverly Mass.), and Erk1 (Santa Cruz Biotechnology) were purchased.

Erk1/2 = Erk1/2 (MAPK) phosphorylation by western blotting in endothelial cells; type: cell-based, mouse
Method: as §1

[1] = test system: A375SM tumor EC (melanoma EC); assay: MTT cell proliferation assay, tumor EC; type: cell-based, mouse
Method: (§2) Cell proliferation. Cells (4×103) were plated in triplicates into 96 well plates and allowed to adhere overnight. The cells were then switched to serum free media containing growth factors and/or AG1478 at indicated concentrations. Cells were cultured for 72 hr and cell proliferation was determined by addition of 0.42 mg/ml of 3-(4,5-dimethylthiazol-2-yl)-2,5-diphenyltetrazolium bromide (MTT) reagent (Sigma-Aldrich) for 4 hr prior to harvesting. Media was removed and cells were solubilized in DMSO and absorbance was measured at 570 nm. The averages of the triplicates were calculated and cell proliferation was determined as the percentage of absorbance of treated cells to the untreated cells. All the experiments were at least performed twice.

skin EC = assay: MTT cell proliferation assay, skin EC; type: cell-based, mouse; details: increasing EGF
Method: as §2

[2] = test system: A375SM melanoma xenograft; assay: A375SM melanoma xenograft model in nude mice; type: in vivo, mouse; details: EGFR-negative A375SM xenografts in mice, daily treatment, 4 weeks
Method: A375SM melanoma tumor cells were injected subcutaneously into nude mice. When the tumors reached an average volume of 200 mm^3 the mice were randomized into a control and Iressa treatment groups. The mice were treated daily p.o. with gefitinib (150 mg/kg) or with the vehicle. Tumor volumes were measured every 4 days.

[3] = target: ErbB3 on mouse skin endothelial cells (skin EC) (mouse) (UniProt Q61526); assay: cell-based or functional assay

With “TGFα: transforming growth factor-alpha, EGFR ligand” the “ligand-induced EGFR phosphorylation / activation” value (EGFR) was “promoted EGFR activation in tumor EC”.
In the case of “EGF: epidermal growth factor, ligand that binds only to EGFR”, the “EGF-induced ErbB2 phosphorylation (p-ErbB2)” value (ErbB2; A375SM tumor EC) is reported as “increased ErbB2 phosphorylation (p-ErbB2) in tumor EC”, the “ErbB2 activation in response to EGF” value (ErbB2; MDA-MB-231 breast carcinoma EC) is reported as “ErbB2 was also activated” and the “ErbB2 activation in response to EGF” value (ErbB2; liposarcoma EC) is reported as “ErbB2 was also activated”. For the same compound, the “phospho-Erk1/2 levels in the presence of EGF” value (Erk1/2; A375SM tumor EC) was “increase in phospho-Erk1/2 levels”, the “MAPK activation by EGF” value (Erk1/2; MDA-MB-231 breast carcinoma EC) was “subsequent MAPK activation” and the “MAPK activation by EGF” value (Erk1/2; liposarcoma EC) was “subsequent MAPK activation”. The “increase in cell proliferation” value ([1]; tumor EC, 20 ng/ml of EGF, MTT) was 2.5 fold, the “effect on cell proliferation (in words)” value ([1]; tumor EC, increasing EGF, MTT) was “dose-dependent increase in cell proliferation” and the “effect on cell proliferation (in words)” value (skin EC) was “did not respond to EGF”.
In the case of `COc1cc2ncnc(Nc3cccc(Cl)c3)c2cc1OC` [AG1478, 4-(3-Chloroanillino)-6,7-dimethoxyquinazoline, reference compound], the “effect on EGF-induced phosphorylation of EGFR” value (EGFR; skin EC, inhibitor pretreatment, then EGF 100 ng/ml) is reported as “had no effect on skin EC”, the “inhibition of EGF-induced phosphorylation of EGFR” value (EGFR; tumor EC (A375SM melanoma EC), inhibitor pretreatment, then EGF 100 ng/ml) is reported as “inhibited EGF-induced phosphorylation of EGFR in tumor EC in a dose-dependent manner; also recorded: inhibits EGFR activation on melanoma EC” and the “inhibition of EGF-induced increase in tumor EC cell proliferation” value ([1]; inhibitor at 1 μM, increasing EGF, MTT 72 hr) is reported as “completely inhibit”. For the same compound, the “inhibition of EGF-induced tumor EC proliferation” value ([1]; tumor (melanoma) EC, concentration not stated / dose dependent) was “completely inhibits EGF dependent proliferation”.
BTC: betacellulin, binds EGFR and ErbB4 was tested, and the “ligand-induced EGFR phosphorylation / activation” value (EGFR) was “promoted EGFR activation in tumor EC”.
For `COc1cc2ncnc(Nc3ccc(F)c(Cl)c3)c2cc1OCCCN1CCOCC1` [Iressa, Gefitinib], the “effect on tumor growth (in words)” value [2] was “inhibits EGFR negative A375SM melanoma xenograph growth” and the “effect on tumor growth (in words)” value ([2]; listed as geftinib) was “effective against EGFR-negative tumors in mice”.
For “NRG1β extra-cellular domain (R&D Systems) (ligand)”, the growth inhibition (MTT assay) of skin EC at 5 ng/ml (0.2 nM) NRG1β [3] was 25%.
In the case of “HB-EGF: Heparin binding-EGF like growth factor, binds EGFR and ErbB4”, the “ligand-induced EGFR phosphorylation / activation” value (EGFR) is reported as “promoted EGFR activation in tumor EC”.
